Among the data in patent publication US10246453B2, “Benzenesulfonamide compounds and their use as therapeutic agents” (Xenon Pharmaceuticals Inc., priority 2016, dated 2019) are IC50 values, retold here.

Where a name gives a salt, the structure may show the parent alone. Read-outs that look alike come from different tables or passages of the source. Bounds are passed on as bounds.

The target in data set [1] is T1, NaV1.1 (Homo sapiens (Human), UniProt P35498). The data set can be described thus: Sodium Influx Assay (Flux), NaV1.1. The conditions noted are these: Trex HEK293 cells, ANG2 dye; arithmetic mean. Type of data set: cell-based.
In data set [2] the target is T2, NaV1.6 (Homo sapiens (Human), UniProt Q9UQD0). The data set can be described thus: Electrophysiological Assay (EP), patch voltage clamp, NaV1.6. The data set is classed as cell-based. The following applies: HEK-293 cells, whole-cell patch clamp, inactivated state; arithmetic mean. Background: Patch clamp records ionic current or voltage across a cell membrane.
The target of data set [3] is T1, NaV1.1. Briefly: Electrophysiological Assay (EP), patch voltage clamp, NaV1.1. Type of data set: cell-based. The following applies: HEK-293 cells, whole-cell patch clamp, inactivated state; arithmetic mean.
In data set [4] the target is T3, NaV1.5 (Homo sapiens (Human), UniProt Q14524).
In data set [5] the target is T2, NaV1.6. The data set can be described thus: Sodium Influx Assay (Flux), NaV1.6.
Data set [6] concerns the target T3, NaV1.5. The data set can be described thus: Electrophysiological Assay (EP), patch voltage clamp, NaV1.5. Type of data set: cell-based. The conditions noted are these: HEK-293 cells, whole-cell patch clamp, inactivated state; arithmetic mean. As for the experimental part: Sodium currents were measured using the patch clamp technique in the whole-cell configuration using either a PatchXpress automated voltage clamp or manually using an Axopatch 200B (Axon Instruments) or Model 2400 (A-M systems) amplifier.
In some studies, the external sodium was reduced by equimolar replacement with choline. […] All recordings were performed at ambient temperature in a bath chamber with a volume of 150 μL. Control sodium currents were measured in 0.5% DMSO. Controls and representative compounds of the invention were applied to the recording chamber through a 4-pinch or 8-pinch valve bath perfusion system manufactured by ALA Scientific Instruments.
Series resistance compensation was applied (60-80%). […] All statistics in this study are given as mean±SD.
The membrane potential was maintained at a voltage where inactivation of the channel is complete. The voltage is then stepped back to a very negative (Vhold=−150 mV) voltage for 20 ms and then a test pulse is applied to quantify the compound block. […] The percent decrease in sodium current following wash-on of compound was taken as the percent block of sodium channels.

In data set [7] the target is T3, NaV1.5. Briefly: Sodium Influx Assay (Flux), NaV1.5. The following applies: read-out: Flux NaV1.5 IC50; Trex HEK293 cells, ANG2 dye; arithmetic mean.
Data set [8] has as its target T3, NaV1.5. Briefly: cell-based.
The mark [9] stands for this setting: read-out: Flux NaV1.6 IC50, Trex HEK293 cells, ANG2 dye, arithmetic mean.

T3 sequence (Q14524 other isoform, or with tags, fused parts or gaps): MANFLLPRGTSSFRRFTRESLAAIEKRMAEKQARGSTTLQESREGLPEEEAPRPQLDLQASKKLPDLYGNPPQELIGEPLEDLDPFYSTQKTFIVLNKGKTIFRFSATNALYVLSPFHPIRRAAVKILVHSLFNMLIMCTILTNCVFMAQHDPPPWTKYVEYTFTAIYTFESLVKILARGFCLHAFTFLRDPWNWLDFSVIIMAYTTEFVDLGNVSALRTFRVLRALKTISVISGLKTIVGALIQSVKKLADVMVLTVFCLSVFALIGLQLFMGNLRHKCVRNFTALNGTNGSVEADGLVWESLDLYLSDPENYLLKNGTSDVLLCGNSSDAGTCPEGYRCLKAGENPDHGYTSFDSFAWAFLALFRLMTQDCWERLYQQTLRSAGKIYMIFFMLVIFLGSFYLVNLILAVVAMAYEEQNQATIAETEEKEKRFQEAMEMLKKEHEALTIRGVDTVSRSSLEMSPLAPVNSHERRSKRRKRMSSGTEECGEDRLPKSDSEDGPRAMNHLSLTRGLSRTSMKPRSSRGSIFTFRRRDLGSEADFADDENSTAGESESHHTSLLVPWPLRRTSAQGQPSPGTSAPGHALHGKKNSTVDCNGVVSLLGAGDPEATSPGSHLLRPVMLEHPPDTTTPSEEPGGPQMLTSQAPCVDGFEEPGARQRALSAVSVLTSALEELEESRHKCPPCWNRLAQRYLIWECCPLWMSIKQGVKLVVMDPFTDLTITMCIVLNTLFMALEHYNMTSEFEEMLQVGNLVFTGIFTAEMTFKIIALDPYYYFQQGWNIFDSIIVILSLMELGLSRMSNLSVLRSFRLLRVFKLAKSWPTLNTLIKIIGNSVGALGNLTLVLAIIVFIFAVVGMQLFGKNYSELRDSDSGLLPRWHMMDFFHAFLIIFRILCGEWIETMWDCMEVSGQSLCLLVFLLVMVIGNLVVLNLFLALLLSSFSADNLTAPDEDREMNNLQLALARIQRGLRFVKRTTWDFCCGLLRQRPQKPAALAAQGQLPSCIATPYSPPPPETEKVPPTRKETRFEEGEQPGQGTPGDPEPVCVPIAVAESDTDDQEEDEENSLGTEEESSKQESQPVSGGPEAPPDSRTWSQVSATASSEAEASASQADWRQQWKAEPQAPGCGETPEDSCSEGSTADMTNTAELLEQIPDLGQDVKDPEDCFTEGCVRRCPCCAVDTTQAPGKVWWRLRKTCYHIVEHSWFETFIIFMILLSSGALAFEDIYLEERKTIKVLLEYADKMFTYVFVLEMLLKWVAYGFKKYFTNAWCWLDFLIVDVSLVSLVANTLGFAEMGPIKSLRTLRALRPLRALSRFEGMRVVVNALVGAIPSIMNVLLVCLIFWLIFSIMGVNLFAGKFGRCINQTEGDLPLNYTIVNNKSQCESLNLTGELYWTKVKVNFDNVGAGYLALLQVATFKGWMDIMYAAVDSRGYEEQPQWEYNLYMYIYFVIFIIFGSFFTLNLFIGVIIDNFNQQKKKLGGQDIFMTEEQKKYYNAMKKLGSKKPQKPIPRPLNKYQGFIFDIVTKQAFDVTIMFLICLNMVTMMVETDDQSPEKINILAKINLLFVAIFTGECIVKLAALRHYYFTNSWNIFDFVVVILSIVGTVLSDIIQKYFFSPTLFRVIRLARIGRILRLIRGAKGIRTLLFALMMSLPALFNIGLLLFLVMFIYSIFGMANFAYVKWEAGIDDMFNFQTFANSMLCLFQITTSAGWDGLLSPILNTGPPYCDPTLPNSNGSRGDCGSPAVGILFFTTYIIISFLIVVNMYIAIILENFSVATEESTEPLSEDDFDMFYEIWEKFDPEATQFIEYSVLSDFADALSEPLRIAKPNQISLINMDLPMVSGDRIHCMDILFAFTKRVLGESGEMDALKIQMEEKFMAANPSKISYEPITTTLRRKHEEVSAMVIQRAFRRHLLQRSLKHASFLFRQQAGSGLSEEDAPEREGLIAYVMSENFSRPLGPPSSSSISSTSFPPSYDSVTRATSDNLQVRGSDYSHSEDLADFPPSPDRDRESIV
T2 sequence (Q9UQD0 whole entry): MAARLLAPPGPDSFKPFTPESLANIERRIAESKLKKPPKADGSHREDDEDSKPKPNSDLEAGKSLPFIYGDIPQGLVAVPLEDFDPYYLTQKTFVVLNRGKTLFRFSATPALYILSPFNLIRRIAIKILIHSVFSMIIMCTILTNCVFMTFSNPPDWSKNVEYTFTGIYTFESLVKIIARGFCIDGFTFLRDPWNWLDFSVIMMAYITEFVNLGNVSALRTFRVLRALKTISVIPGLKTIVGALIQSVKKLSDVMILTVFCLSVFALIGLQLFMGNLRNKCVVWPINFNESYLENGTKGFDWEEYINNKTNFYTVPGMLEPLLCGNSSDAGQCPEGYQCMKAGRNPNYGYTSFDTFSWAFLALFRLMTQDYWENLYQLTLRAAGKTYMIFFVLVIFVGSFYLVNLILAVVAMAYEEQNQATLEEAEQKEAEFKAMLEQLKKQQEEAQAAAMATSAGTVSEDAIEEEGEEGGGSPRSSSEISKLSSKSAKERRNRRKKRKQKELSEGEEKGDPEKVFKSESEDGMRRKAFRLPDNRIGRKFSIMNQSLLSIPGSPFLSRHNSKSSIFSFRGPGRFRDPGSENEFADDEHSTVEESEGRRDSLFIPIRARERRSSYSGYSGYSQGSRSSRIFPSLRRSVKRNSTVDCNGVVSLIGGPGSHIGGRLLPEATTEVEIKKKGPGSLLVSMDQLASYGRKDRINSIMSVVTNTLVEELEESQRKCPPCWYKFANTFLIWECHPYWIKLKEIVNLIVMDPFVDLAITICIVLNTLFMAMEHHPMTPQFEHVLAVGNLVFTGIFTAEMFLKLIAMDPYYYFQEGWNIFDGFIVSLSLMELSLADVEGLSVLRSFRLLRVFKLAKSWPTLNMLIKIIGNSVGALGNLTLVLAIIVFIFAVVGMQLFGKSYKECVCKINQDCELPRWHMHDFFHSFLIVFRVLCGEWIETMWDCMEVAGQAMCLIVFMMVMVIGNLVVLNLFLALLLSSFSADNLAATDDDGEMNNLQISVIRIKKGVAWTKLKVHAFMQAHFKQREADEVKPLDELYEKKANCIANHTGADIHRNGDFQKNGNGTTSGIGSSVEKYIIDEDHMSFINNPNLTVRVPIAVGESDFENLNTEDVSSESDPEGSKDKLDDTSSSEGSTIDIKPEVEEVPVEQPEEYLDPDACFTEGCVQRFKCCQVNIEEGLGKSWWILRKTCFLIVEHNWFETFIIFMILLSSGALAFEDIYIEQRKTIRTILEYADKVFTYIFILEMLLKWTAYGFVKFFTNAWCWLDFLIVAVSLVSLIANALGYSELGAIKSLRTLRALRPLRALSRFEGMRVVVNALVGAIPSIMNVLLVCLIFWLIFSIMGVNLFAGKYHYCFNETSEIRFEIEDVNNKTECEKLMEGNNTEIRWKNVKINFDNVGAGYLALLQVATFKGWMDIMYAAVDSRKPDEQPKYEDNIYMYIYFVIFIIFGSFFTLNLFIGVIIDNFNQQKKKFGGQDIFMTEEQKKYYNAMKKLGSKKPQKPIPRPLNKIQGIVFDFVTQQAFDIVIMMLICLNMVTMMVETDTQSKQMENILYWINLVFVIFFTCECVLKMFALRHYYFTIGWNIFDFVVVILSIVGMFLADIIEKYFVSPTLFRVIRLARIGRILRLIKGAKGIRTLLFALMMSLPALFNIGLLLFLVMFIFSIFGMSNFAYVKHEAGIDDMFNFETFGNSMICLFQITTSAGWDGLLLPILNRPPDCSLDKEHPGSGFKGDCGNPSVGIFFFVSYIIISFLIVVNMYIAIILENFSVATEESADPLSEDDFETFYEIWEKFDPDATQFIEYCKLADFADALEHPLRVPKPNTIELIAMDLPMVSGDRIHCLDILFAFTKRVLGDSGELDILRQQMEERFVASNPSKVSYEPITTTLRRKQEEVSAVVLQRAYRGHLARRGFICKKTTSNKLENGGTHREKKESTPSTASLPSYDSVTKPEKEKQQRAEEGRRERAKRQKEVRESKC

As for `O=S(=O)(Nc1nccs1)c1cc(Cl)c(O[C@@H]2C[C@H]3CC[C@@H](C2)N3Cc2ccccc2)cc1F` [Example 17, 4-(((1R,3s,5S)-8-benzyl-8-azabicyclo[3.2.1]octan-3-yl)oxy)-5-chloro-2-fluoro-N-(thiazol-2-yl)benzenesulfonamide], the half-maximal inhibitory concentration (IC50) on NaV1.1 [1] was over 30 µM; against NaV1.6 [2], 0.155 µM; against NaV1.1 [3] it was over 10 µM; on NaV1.5 [4], over 30 µM; at NaV1.6 [5] (setting [9]), 0.392 µM.
Regarding `CN(c1ccc(S(=O)(=O)Nc2ncns2)cc1Cl)[C@H]1CCN(Cc2ccccc2)C1` [Example 29, (S)-4-((1-benzylpyrrolidin-3-yl)(methyl)amino)-3-chloro-N-(1,2,4-thiadiazol-5-yl)benzenesulfonamide hydrochloride salt], the 50% inhibitory concentration (IC50) was over 30 µM against NaV1.1 [1]; 0.06 µM at NaV1.6 [2]; over 10 µM against NaV1.5 [6]; over 10 µM against NaV1.1 [3]; 0.244 µM at NaV1.6 [5] (setting [9]); 29.5 µM at NaV1.5 [7].
Turning to `CN(c1cc(F)c(S(=O)(=O)Nc2cscn2)cc1Cl)[C@H]1CCN(Cc2ccccc2)C1` [Example 38, (S)-4-((1-benzylpyrrolidin-3-yl)(methyl)amino)-5-chloro-2-fluoro-N-(thiazol-4-yl)benzenesulfonamide 2,2,2-trifluoroacetate], the IC50 at NaV1.1 [1] was 17.9 µM; at NaV1.6 [2], 0.803 µM; against NaV1.5 [6] it was over 30 µM; at NaV1.1 [3], over 10 µM; on NaV1.6 [5] (setting [9]), 1.94 µM; on NaV1.5 [7], 26.3 µM.
`CN(c1cc(F)c(S(=O)(=O)Nc2nccs2)cc1Cl)C1CCN(Cc2ccccc2)CC1` [Example 53, 4-((1-benzylpiperidin-4-yl)(methyl)amino)-5-chloro-2-fluoro-N-(thiazol-2-yl)benzenesulfonamide]: the figures for the IC50 on NaV1.1 [1], against NaV1.5 [4] and on NaV1.6 [5] (setting [9]) were 7.41 µM, 24.5 µM and 0.601 µM, respectively.
Consider `C[C@@H](c1ccccc1)N1CCC(Oc2ccc(S(=O)(=O)Nc3nccs3)cc2Cl)CC1` [Example 58, (S)-3-chloro-4-((1-(1-phenylethyl)piperidin-4-yl)oxy)-N-(thiazol-2-yl)benzenesulfonamide 2,2,2-trifluoroacetate], for which the figures for the concentration for half-maximal inhibition (IC50) on NaV1.6 [2], at NaV1.5 [8] and at NaV1.6 [5] were 0.093 µM, 5.58 µM and 0.402 µM, respectively.
Take `O=S(=O)(Nc1nccs1)c1ccc(N[C@@H]2CCN(Cc3ccccc3F)C2)c(Cl)c1` [Example 71, (R)-3-chloro-4-((1-(2-fluorobenzyl)pyrrolidin-3-yl)amino)-N-(thiazol-2-yl)benzenesulfonamide]: the IC50 on NaV1.1 [1] stood at 3.35 µM; on NaV1.5 [6] it was 0.863 µM; at NaV1.6 [5] (setting [9]) it was 1.26 µM; on NaV1.5 [7] it was 9.27 µM.
Regarding `CN(c1cc(F)c(S(=O)(=O)Nc2cscn2)cc1Cl)[C@H]1CCN(Cc2ccc3[nH]ccc3c2)C1` [Example 190, (S)-4-((1-((1H-indol-5-yl)methyl)pyrrolidin-3-yl)(methyl)amino)-5-chloro-2-fluoro-N-(thiazol-4-yl)benzene-sulfonamide formate], the IC50 against NaV1.1 [1] turned out to be 5.17 µM; against NaV1.5 [8], 8.25 µM; against NaV1.6 [5], 2.33 µM.
In the case of `CN(c1ccc(S(=O)(=O)Nc2cscn2)cc1Cl)[C@H]1CCN(Cc2cc(Cl)ccc2F)C1` [Example 254, (S)-3-chloro-4-((1-(5-chloro-2-fluorobenzyl)pyrrolidin-3-yl)(methyl)amino)-N-(thiazol-4-yl)benzenesulfonamide formate], the 50% inhibitory concentration (IC50) at NaV1.1 [1] amounted to 2.32 µM; against NaV1.5 [6] it was 17 µM; at NaV1.6 [5] (setting [9]), 1.16 µM; on NaV1.5 [7], 0.962 µM.
As for `C[C@H](c1ccccc1)N1CCC(N(C)c2cc(F)c(S(=O)(=O)Nc3cscn3)cc2Cl)CC1` [Example 280, (R)-5-chloro-2-fluoro-4-(methyl(1-(1-phenylethyl)piperidin-4-yl)amino)-N-(thiazol-4-yl)benzenesulfonamide formate], the results for the IC50 on NaV1.1 [1], on NaV1.5 [4] and at NaV1.6 [5] (setting [9]) were 17.4 µM, 27.1 µM and 0.228 µM, respectively.
On to `Cc1cc(S(=O)(=O)Nc2cscn2)c(F)cc1N(C)C1CCN([C@H](C)c2ccccc2)CC1` [Example 281, (R)-2-fluoro-5-methyl-4-(methyl(1-(1-phenylethyl)piperidin-4-yl)amino)-N-(thiazol-4-yl)benzenesulfonamide 2,2,2-trifluoroacetate], for which the IC50 on NaV1.1 [1] is 14.6 µM; against NaV1.5 [4], 13.1 µM; at NaV1.6 [5] (setting [9]), 0.021 µM.
For `Cc1cccc(CN2CC[C@H](N(C)c3cc(F)c(S(=O)(=O)Nc4ncns4)c(F)c3C)C2)n1` [Example 296, 2,2,2-trifluoroacetate], the IC50 against NaV1.1 [1] was over 30 µM; at NaV1.6 [2], 0.002 µM; on NaV1.5 [8], over 30 µM; at NaV1.6 [5] (setting [9]), 0.01 µM.
For `Cc1cccc(CN2CC[C@H](N(C)c3cc(F)c(S(=O)(=O)Nc4ncns4)c(F)c3Cl)C2)n1` [Example 297, (S)-3-chloro-2,6-difluoro-4-(methyl (1-((6-methylpyridin-2-yl)methyl)pyrrolidin-3-yl)amino)-N-(1,2,4-thiadiazol-5-yl)benzenesulfonamide 2,2,2-trifluoroacetate], the IC50 against NaV1.1 [1] is over 30 µM; at NaV1.6 [2], 0.012 µM; at NaV1.5 [8], over 30 µM; on NaV1.6 [5], 0.062 µM.
Regarding `O=S(=O)(Nc1cscn1)c1ccc(O[C@@H]2C[C@H]3CC[C@@H](C2)N3Cc2cc(Cl)ccc2F)c(Cl)c1` [Example 316, 3-chloro-4-(((1R,3s,5S)-8-(5-chloro-2-fluorobenzyl)-8-azabicyclo[3.2.1]octan-3-yl)oxy)-N-(thiazol-4-yl)benzenesulfonamide formate], the IC50 worked out at 2.8 µM against NaV1.1 [1], 5.09 µM at NaV1.5 [4] and 3.9 µM at NaV1.6 [5] (setting [9]).
Consider `O=S(=O)(Nc1cscn1)c1ccc(O[C@@H]2C[C@H]3CC[C@@H](C2)N3Cc2ccccc2)c(Cl)c1` [Example 318, 4-(((1R,3s,5S)-8-benzyl-8-azabicyclo[3.2.1]octan-3-yl)oxy)-3-chloro-N-(thiazol-4-yl)benzenesulfonamide], for which the IC50 is 13.8 µM on NaV1.1 [1]; 1.15 µM at NaV1.6 [2]; over 10 µM against NaV1.1 [3]; 17.4 µM at NaV1.5 [4]; 5.46 µM at NaV1.6 [5] (setting [9]).
Turning to `O=S(=O)(Nc1cscn1)c1ccc(O[C@@H]2C[C@H]3CC[C@@H](C2)N3Cc2ccc(F)c(Cl)c2)c(Cl)c1` [Example 319, 3-chloro-4-(((1R,3s,5S)-8-(3-chloro-4-fluorobenzyl)-8-azabicyclo[3.2.1]octan-3-yl)oxy)-N-(thiazol-4-yl)benzenesulfonamide formate], the IC50 stood at 3.69 µM against NaV1.1 [1], 2.48 µM at NaV1.5 [4] and 3.32 µM on NaV1.6 [5] (setting [9]).
Consider `CN(c1ccc(S(=O)(=O)Nc2ncns2)cc1Cl)[C@H]1CCN(Cc2cc(F)cc(F)c2)C1` [Example 327, (S)-3-chloro-4-((1-(3,5-difluorobenzyl)pyrrolidin-3-yl)(methyl)amino)-N-(1,2,4-thiadiazol-5-yl)benzenesulfonamide formate], for which the results for the IC50 against NaV1.1 [1], against NaV1.5 [8] and on NaV1.6 [5] were 17.3 µM, over 30 µM and 1.04 µM, respectively.

The IC50 is the concentration needed to halve the response being measured.
